Measured values published in US7211545B2, “Imidazo[1,2-a]pyrimidine and fungicidal compositions containing thereof” (Sumitomo Chemical Company, Limited, priority 2001, dated 2007).

Key:
Botrytis cinerea = experiment: Test Example 3: preventive efficacy against Botrytis cinerea on cucumber (comparison with Reference Compound A); type: in vivo; settings: 500 ppm flowable, foliar spray on cucumber cotyledons, inoculated after spraying, 12° C. humid, 4 days
Method: The control effect of the present compound was evaluated by visually observing the area of a lesion on a plant under test in investigation and comparing the area of a lesion in a non-treatment group and the area of a lesion in a group treated with the present compound. Sand loam was compacted in plastic pots, cucumbers (Ochiai Aonagafushinari) were seeded and grown in a greenhouse for 10 days. Then, each of Reference Compound A and Compound 182 was formulated into a flowable formulation according to Formulation Example 6, then, diluted with water to provide prescribed concentration (500 ppm), and sprayed over the foliage so as to give sufficient adhesion on the surface of cucumber cotyledons. After spraying, the plants were air-dried, and PDA medium containing spores of Botrytis cinerea were attached on cucumber cotyledons. After the inoculation, the cucumbers were placed in a humid condition at 12° C. for 4 days, and the control effect was examined. As a result, areas of lesions on the plant treated with Reference Compound A were in the range of 75% to 100% on those of the untreated groups, on the other hand, areas of lesions on the plant treated with Compound 182 was not greater than 1% of areas of lesions on those of the untreated groups.

Sphaerotheca fuliginea = experiment: Test Example 4: preventive efficacy against Sphaerotheca fuliginea on cucumber (comparison with Reference Compound A); type: in vivo; settings: 500 ppm flowable, foliar spray on cucumber leaves, inoculated after spraying, 23° C., 12 days
Method: The control effect of the present compound was evaluated by visually observing the area of a lesion on a plant under test in investigation and comparing the area of a lesion in a non-treatment group and the area of a lesion in a group treated with the present compound. Sand loam was compacted in plastic pots, cucumbers (Ochiai Aonagafushinari) were seeded and grown in a greenhouse for 12 days. Then, each of Reference Compound A and Compound 182 was formulated into flowable formulations according to Formulation Example 6, then, diluted with water to provide prescribed concentration (500 ppm), and sprayed over the foliage so as to give sufficient adhesion on the surface of cucumber leaves. After spraying, the plants were air-dried, and inoculated with spores of Sphaerotheca fuliginea. After the inoculation, the cucumbers were placed at 23° C. for 12 days, and the control effect was examined. As a result, areas of lesions on the plant treated with Reference Compound A were in the range of 75% to 100% on those of the untreated groups, on the other hand, areas of lesions on the plant treated with Compound 182 was not greater than 1% of infested areas on those of the untreated groups.

melting point [°C]	Structure (SMILES)	areas of lesions on treated plant as % of areas of lesions on untreated groups (Botrytis cinerea) [%]	areas of lesions on treated plant as % of infested areas on untreated groups (Sphaerotheca fuliginea) [%]
183.8	CC1CCN(c2c(-c3c(F)cccc3Cl)c(Cl)nc3nccn23)CC1 [Compound 182, 5-(4-methylpiperidin-1-yl)-6-(2-chloro-6-fluorophenyl)-7-chloroimidazo[1,2-a]pyrimidine]	≤ 1	≤ 1
144.5	Cc1nc2nccn2c(N2CCC(C)CC2)c1-c1c(F)cccc1Cl [Compound 428, 5-(4-methylpiperidin-1-yl)-6-(2-chloro-6-fluorophenyl)-7-methylimidazo[1,2-a]pyrimidine]		

Further lines, the compound ahead of its results:

Structure (SMILES)	melting point [°C]	areas of lesions on treated plant as % of areas of lesions on untreated groups (Botrytis cinerea) [%]	areas of lesions on treated plant as % of infested areas on untreated groups (Sphaerotheca fuliginea) [%]
CCCN(CCC)c1c(-c2c(F)cc(F)cc2F)c(Cl)nc2nccn12 [Compound 8, 5-(di-n-propylamino)-6-(2,4,6-trifluorophenyl)-7-chloroimidazo[1,2-a]pyrimidine]	95.4		
CC1CCN(c2c(-c3c(F)cc(F)cc3F)c(Cl)nc3nccn23)CC1 [Compound 55, 5-(4-methylpiperidin-1-yl)-6-(2,4,6-trifluorophenyl)-7-chloroimidazo[1,2-a]pyrimidine]	200.8		
Cc1cc(C)n(-c2c(-c3c(F)cc(F)cc3F)c(Cl)nc3nccn23)n1 [Compound 89, 5-(3,5-dimethylpyrazol-1-yl)-6-(2,4,6-trifluorophenyl)-7-chloroimidazo[1,2-a]pyrimidine]	150.4		
